The results in this text go back to patent US7943629B2, “Sulphimides as protein kinase inhibitors” (Bayer Schering Pharma AG, priority 2006, dated 2011).

Bounds are passed on as bounds.

As usually defined, the IC50 is the concentration that inhibits the measured activity by half. High values mean weaker potency in that assay, low ones greater potency in that assay.

In test [1] the test system is MCF7 breast tumour cells. Kind of test: MCF7 proliferation assay. The class given is cell-based, human. Particulars: for antiproliferative activity, MCF7 (in words): summary of Tab. 2; for IC50: Homo sapiens, MCF7, 96 h, 4 days incubation, crystal violet staining. Here is the method: Cultivated human MCF7 breast tumour cells (ATCC HTB-22) were plated out in a density of 5000 cells/measurement point in 200 μl of growth medium (RPMI1640, 10% foetal calf serum, 2 mU/mL insulin, 0.1 nM oestradiol) in a 96-well multititre plate. After 24 hours, the cells from a plate (zero plate) were stained with crystal violet (see below), while the medium in the other plates was replaced by fresh culture medium (200 μl) to which the test substances had been added in various concentrations (0 μM, and in the range 0.1-30 μM; the final concentration of the solvent dimethyl sulphoxide was 0.5%). The cells were incubated in the presence of the test substances for 4 days. The cell proliferation was determined by staining the cells with crystal violet: the cells were fixed by adding 20 μl/measurement point of an 11% strength glutaraldehyde solution at room temperature for 15 min. After the fixed cells had been washed three times with water, the plates were dried at room temperature. The cells were stained by adding 100 μl/measurement point of a 0.1% strength crystal violet solution (pH adjusted to pH 3 by adding acetic acid). After the stained cells had been washed three times with water, the plates were dried at room temperature. The dye was dissolved by adding 100 μl/measurement point of a 10% strength acetic acid solution, and the extinction was determined by photometry at a wavelength of 595 nm. The percentage change in cell growth was calculated by normalizing the measurements to the extinctions of the zero point plate (=0%) and the extinction of the untreated (0 μM) cells (=100%). The IC50 values were determined by means of a 4-parameter fit using the company's own software.

Test [2] addresses T1, CDK1/CycB (Homo sapiens, UniProt P06493).
T1 construct: GST; purchased ProQinase GmbH, Freiburg; host or cells: baculovirus-infected insect cells (Sf9)
Kind of test: CDK1/CycB kinase assay. In kind it is biochemical. Particulars: 0.5 μM ATP, histone IIIS, 22° C., 10 min. Here is the method:
Recombinant CDK1- and CycB-GST fusion proteins, purified from baculovirus-infected insect cells (Sf9), were purchased from ProQinase GmbH, Freiburg. The histone IIIS used as kinase substrate can be purchased from Sigma. CDK1/CycB (200 ng/measurement point) was incubated in the presence of various concentrations of test substances (0 μM, and within the range 0.01-100 μM) in assay buffer [50 mM Tris/HCl pH 8.0, 10 mM MgCl2, 0.1 mM Na ortho-vanadate, 1.0 mM dithiothreitol, 0.5 μM ATP, 10 μg/measurement point histone IIIS, 0.2 μCi/measurement point ^33P-gamma-ATP, 0.05% NP40, 1.25% dimethyl sulphoxide] at 22° C. for 10 min. The reaction was stopped by adding EDTA solution (250 mM, pH 8.0, 15 μl/measurement point).
15 μl of each reaction mixture were loaded onto P30 filter strips (from Wallac), and non-incorporated ^33P-ATP was removed by washing the filter strips three times in 0.5% strength phosphoric acid for 10 min each time. After the filter strips had been dried at 70° C. for 1 hour, the filter strips were covered with scintillator strips (MeltiLex™ A, from Wallac) and baked at 90° C. for 1 hour. The amount of incorporated ^33P (substrate phosphorylation) was determined by scintillation measurement in a gamma radiation counter (Wallac).

Test [3] has as its target T2, CDK2/CycE (Homo sapiens, UniProt P24941).
T2 construct: GST; purchased ProQinase GmbH, Freiburg; host or cells: baculovirus-infected insect cells (Sf9)
Put plainly: CDK2/CycE kinase assay. Particulars: 0.5 μM ATP, histone IIIS, 22° C., 10 min. In kind it is biochemical. Here is the method: Recombinant CDK2- and CycE-GST fusion proteins, purified from baculovirus-infected insect cells (Sf9), were purchased from ProQinase GmbH, Freiburg. The histone IIIS used as kinase substrate was purchased from Sigma.
CDK2/CycE (50 ng/measurement point) was incubated in the presence of various concentrations of test substances (0 μM, and within the range 0.01-100 μM) in assay buffer [50 mM Tris/HCl pH 8.0, 10 mM MgCl2, 0.1 mM Na ortho-vanadate, 1.0 mM dithiothreitol, 0.5 μM ATP, 10 μg/measurement point histone IIIS, 0.2 μCi/measurement point ^33P-gamma-ATP, 0.05% NP40, 1.25% dimethyl sulphoxide] at 22° C. for 10 min. The reaction was stopped by adding EDTA solution (250 mM, pH 8.0, 15 μl/measurement point).
15 μl of each reaction mixture were loaded onto P30 filter strips (from Wallac), and non-incorporated ^33P-ATP was removed by washing the filter strips three times in 0.5% strength phosphoric acid for 10 min each time.
After the filter strips had been dried at 70° C. for 1 hour, the filter strips were covered with scintillator strips (MeltiLex™ A, from Wallac) and baked at 90° C. for 1 hour. The amount of incorporated ^33P (substrate phosphorylation) was determined by scintillation measurement in a gamma radiation counter (Wallac).

For test [4], the target named is T3, KDR (VEGFR2) (Homo sapiens, UniProt P35968).
T3 construct: made in house; host or cells: E. coli
T3 sequence (P35968 20-1356, species assumed): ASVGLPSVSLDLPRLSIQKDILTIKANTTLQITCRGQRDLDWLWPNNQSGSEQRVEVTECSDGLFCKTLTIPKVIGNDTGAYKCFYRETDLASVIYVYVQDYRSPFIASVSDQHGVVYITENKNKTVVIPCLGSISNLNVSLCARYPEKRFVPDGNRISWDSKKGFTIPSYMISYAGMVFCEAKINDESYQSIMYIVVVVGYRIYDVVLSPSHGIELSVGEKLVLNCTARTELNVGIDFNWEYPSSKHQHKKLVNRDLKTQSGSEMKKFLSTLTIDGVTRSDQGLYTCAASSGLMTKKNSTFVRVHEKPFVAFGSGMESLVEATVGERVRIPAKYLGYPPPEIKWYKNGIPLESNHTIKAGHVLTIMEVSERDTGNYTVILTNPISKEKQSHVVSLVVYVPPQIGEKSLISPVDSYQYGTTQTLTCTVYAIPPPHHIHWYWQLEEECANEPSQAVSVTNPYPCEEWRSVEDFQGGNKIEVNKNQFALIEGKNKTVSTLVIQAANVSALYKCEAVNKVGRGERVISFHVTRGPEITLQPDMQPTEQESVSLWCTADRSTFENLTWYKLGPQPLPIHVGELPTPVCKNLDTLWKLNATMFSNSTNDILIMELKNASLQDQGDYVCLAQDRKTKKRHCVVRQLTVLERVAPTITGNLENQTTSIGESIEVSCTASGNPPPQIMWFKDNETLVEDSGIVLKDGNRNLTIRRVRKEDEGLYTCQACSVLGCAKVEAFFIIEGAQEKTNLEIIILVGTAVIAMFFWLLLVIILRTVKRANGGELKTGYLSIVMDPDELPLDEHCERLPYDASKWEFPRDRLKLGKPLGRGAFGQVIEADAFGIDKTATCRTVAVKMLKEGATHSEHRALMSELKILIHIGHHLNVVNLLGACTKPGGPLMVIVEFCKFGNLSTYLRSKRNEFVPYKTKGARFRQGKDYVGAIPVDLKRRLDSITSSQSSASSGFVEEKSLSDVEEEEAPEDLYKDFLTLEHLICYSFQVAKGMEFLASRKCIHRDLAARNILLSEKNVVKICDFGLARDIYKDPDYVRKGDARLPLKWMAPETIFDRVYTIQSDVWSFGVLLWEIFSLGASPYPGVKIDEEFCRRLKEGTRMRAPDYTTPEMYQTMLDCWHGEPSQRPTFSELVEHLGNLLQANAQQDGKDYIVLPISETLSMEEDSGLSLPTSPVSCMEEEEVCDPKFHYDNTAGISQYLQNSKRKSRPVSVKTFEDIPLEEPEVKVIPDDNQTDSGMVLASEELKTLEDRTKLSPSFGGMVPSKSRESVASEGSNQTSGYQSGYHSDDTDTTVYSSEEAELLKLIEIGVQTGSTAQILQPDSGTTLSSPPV
Put plainly: KDR kinase assay. In kind it is biochemical. Conditions: 10 μM ATP, 22° C., 45 min, HTRF. The method, then: Recombinant KDR protein was expressed in E. coli and then purified. The kinase substrate used was the biotinylated peptide having the amino acid sequence biotin-DFGLARDMYDKEYYSVG, which was purchased from Biosynthan. KDR [test volume 5 μl] was incubated in the presence of various concentrations of test substances (0 μM, and 10 measurement points within the range 0.001-20 μM in duplicate) in assay buffer [50 mM HEPES pH 7.0, 25.0 mM MgCl2, […], 0.1 mM Na ortho-vanadate, 1.0 mM dithiothreitol, 0.001% NP40, 10 μM ATP, 0.03 μM substrate peptide […], 1.0% dimethyl sulphoxide] at 22° C. for 45 min. The reaction was stopped by adding 5 μl of an EDTA/detection solution [50 mM HEPES pH 7.5, 125 mM EDTA, 0.2% BSA, 0.1 μM streptavidin-XLent (from CisBio), 2 nM PT66-Eu (from PerkinElmer)]. The fluorescence emission at 620 nm and 665 nm after excitation with light of the wavelength 350 nm was measured in a Rubystar HTRF instrument from BMG Labsystems.
The measured data (ratio of emission 665 divided by emission 620 multiplied by 10 000) were normalized to 0% inhibition (enzyme reaction without inhibitor) and 100% inhibition (all assay components apart from enzyme). The IC50 values were determined by means of a 4-parameter fit using the company's own software.

The target of test [5] is T4, Aurora-C (Homo sapiens, UniProt Q9UQB9).
T4 construct: made in house; host or cells: transiently transfected HEK293 cells
T4 sequence (Q9UQB9 1-309): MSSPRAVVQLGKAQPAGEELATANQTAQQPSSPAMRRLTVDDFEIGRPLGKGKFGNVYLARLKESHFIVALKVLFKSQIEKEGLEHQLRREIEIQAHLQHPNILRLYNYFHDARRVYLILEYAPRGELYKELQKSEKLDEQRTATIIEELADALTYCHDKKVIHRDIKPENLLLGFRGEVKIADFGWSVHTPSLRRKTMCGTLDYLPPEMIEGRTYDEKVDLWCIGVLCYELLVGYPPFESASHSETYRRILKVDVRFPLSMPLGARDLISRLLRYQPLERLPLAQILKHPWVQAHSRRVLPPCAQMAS
Kind of test: Aurora-C kinase assay. The class given is biochemical. Particulars: for IC50: 3 μM ATP, 22° C., 90 min. Here is the method:
Recombinant Aurora-C protein was expressed in transiently transfected HEK293 cells and then purified. The kinase substrate used was the biotinylated peptide having the amino acid sequence biotin-FMRLRRLSTKYRT, which was purchased from Jerini AG in Berlin.
Aurora-C [5 nM in the test mixture, test volume 5 μl] was incubated in the presence of various concentrations of test substances (0 μM and 10 measurement points within the range 0.001-20 μM in duplicate) in assay buffer [25 mM HEPES pH 7.4, 0.5 mM MnCl2, 0.1 mM Na ortho-vanadate, 2.0 mM dithiothreitol, 0.05% bovine serum albumin (BSA), 0.01% Triton X-100, 3 μM adenosine trisphosphate (ATP), 0.67 nCi/μl gamma-^33P-ATP, 2.0 μM substrate peptide biotin-FMRLRRLSTKYRT, 1.0% dimethyl sulphoxide] at 22° C. for 90 min. The reaction was stopped by adding 12.5 μl of an EDTA/detection solution [16 mM EDTA, 40 mM ATP, 0.08% Triton X-100, 4 mg/ml PVT streptavidin SPA beads (from Amersham)]. After incubation for 10 minutes, the SPA beads were pelleted by centrifugation at 1000×G for 10 minutes. Measurement took place in a PerkinElmer Topcount scintillation counter. The measured data were normalized to 0% inhibition (enzyme reaction without inhibitor) and 100% inhibition (enzyme reaction in the presence of 0.1 μM staurosporine (from Sigma)). The IC50 values were determined by means of a 4-parameter fit using the company's own software.

T1 sequence (P06493 whole entry): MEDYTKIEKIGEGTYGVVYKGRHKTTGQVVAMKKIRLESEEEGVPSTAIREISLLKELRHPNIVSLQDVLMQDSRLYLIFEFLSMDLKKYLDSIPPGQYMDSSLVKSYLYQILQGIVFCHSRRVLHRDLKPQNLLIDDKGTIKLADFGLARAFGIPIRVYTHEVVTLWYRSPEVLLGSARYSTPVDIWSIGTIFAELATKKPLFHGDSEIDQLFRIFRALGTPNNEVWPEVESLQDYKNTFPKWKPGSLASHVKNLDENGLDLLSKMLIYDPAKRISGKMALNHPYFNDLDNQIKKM
T1 sequence (P14635 whole entry partner): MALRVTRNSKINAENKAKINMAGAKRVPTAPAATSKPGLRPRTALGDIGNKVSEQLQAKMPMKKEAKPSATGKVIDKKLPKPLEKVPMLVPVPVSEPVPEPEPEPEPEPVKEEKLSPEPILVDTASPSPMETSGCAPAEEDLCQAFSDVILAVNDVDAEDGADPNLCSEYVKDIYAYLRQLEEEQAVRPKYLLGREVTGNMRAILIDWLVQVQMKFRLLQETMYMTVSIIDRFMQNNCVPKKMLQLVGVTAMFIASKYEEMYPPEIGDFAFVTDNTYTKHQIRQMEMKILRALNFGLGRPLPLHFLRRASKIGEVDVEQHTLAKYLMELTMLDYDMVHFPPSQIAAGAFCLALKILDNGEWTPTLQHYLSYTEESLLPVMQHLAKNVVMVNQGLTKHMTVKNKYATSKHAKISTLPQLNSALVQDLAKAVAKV

As for `Cc1ccc(S(=O)(=O)N=S(C)c2ccc(Nc3ncc(Br)c(N[C@H](C)C(C)(C)O)n3)cc2)nc1` (mixture of isomers) [Example 10, (RS)—S-{4-[(5-Bromo-4-{[(R)-2-hydroxy-1,2-dimethylpropyl]amino}pyrimidin-2-yl)amino]phenyl}-S-methyl-N-[(5-methyl-2-pyridyl)sulphonyl]sulphimide], the “antiproliferative activity, MCF7 (in words)” value in test [1] was “excellent antiproliferative activity”.

For `C[C@@H](Nc1nc(Nc2ccc(S(C)=NS(=O)(=O)c3ccc(Cl)s3)cc2)ncc1Br)C(C)(C)O` (mixture of isomers) [Example 17, (RS)—S-{4-[(5-Bromo-4-{[(R)-2-hydroxy-1,2-dimethylpropyl]amino}pyrimidin-2-yl)amino]phenyl}-N-[(5-chloro-2-thienyl)sulphonyl]-S-methylsulphimide], the “antiproliferative activity, MCF7 (in words)” value in test [1] is reported as “excellent antiproliferative activity”.

As to `Cc1ccc(S(=O)(=O)N=S(C)c2cccc(Nc3ncc(Br)c(NC(C)C)n3)c2)cc1` (racemic) [Example 2, (RS)—S-(3-{[5-Bromo-4-(isopropylamino)pyrimidin-2-yl]amino}phenyl)-S-methyl-N-(tolylsulphonyl)sulphimide], the IC50 in test [2] was over 1 µM; in test [3], over 1 µM; in test [4] it was 0.2 µM.

In the case of `Cc1ccc(S(=O)(=O)N=S(C)c2ccc(Nc3ncc(Br)c(NC4CC4)n3)cc2)cc1` (racemic) [Example 3, (RS)—S-(4-{[5-Bromo-4-(cyclopropylamino)pyrimidin-2-yl]amino}phenyl)-S-methyl-N-(tolylsulphonyl)sulphimide], the half-inhibitory concentration (IC50) was 0.09 µM in test [5], over 1 µM in test [2], 0.013 µM in test [4] and 0.34 µM in test [1]. Besides, in test [5] (summary of Tab. 1), the “inhibition of Aurora C kinase (in words)” value is recorded as “inhibits”.

`Cc1ccc(S(=O)(=O)N=S(C)c2cccc(Nc3ncc(Br)c(NC4CC4)n3)c2)cc1` (racemic) [Example 4, (RS)—S-(3-{[5-Bromo-4-(cyclopropylamino)pyrimidin-2-yl]amino}phenyl)-S-methyl-N-(tolylsulphonyl)sulphimide]: the results for the 50% inhibitory concentration (IC50) in test [2], in test [3] and in test [4] were over 1 µM, over 1 µM and 0.17 µM, respectively.

`Cc1ccc(S(=O)(=O)N=S(C)c2ccc(Nc3nccc(NC(C)C)n3)cc2)cc1` (racemic) [Example 5, (RS)—S-(4-{[4-(Isopropylamino)pyrimidin-2-yl]amino}phenyl)-S-methyl-N-(tolylsulphonyl)sulphimide]: the IC50 in test [5] is 4.6 µM; in test [2] it was over 1 µM; in test [3] it was over 1 µM; in test [4], 0.76 µM.

Consider `Cc1ccc(S(=O)(=O)N=S(C)c2ccc(Nc3ncc(Br)c(Nc4ccccc4)n3)cc2)cc1` (racemic) [Example 6, (RS)—S-{4-[(4-Anilino-5-bromopyrimidin-2-yl)amino]phenyl}-S-methyl-N-(tolylsulphonyl)sulphimide], for which the IC50 in test [2] was over 1 µM; in test [3] it was over 1 µM; in test [4], 0.12 µM.

For the compound `Cc1ccc(S(=O)(=O)N=S(C)c2ccc(Nc3ncc(Br)c(NCCO)n3)cc2)cc1` (racemic) [Example 7, (RS)—S-[4-({5-Bromo-4-[(2-hydroxyethyl)amino]pyrimidin-2-yl}amino)phenyl]-S-methyl-N-(tolylsulphonyl)sulphimide], the concentration for half-maximal inhibition (IC50) is 0.68 µM in test [5], over 1 µM in test [2], over 1 µM in test [3] and 0.043 µM in test [4].

On to `CC(=O)NCCNc1nc(Nc2ccc(S(C)=NS(=O)(=O)c3ccc(C)cc3)cc2)ncc1Br` (racemic) [Example 23, (RS)—S-{4-[(4-{[2-(Acetylamino)ethyl]amino}-5-bromopyrimidin-2-yl)amino]-phenyl}-S-methyl-N-(tolylsulphonyl)sulphimide], for which the IC50 came to 0.036 µM in test [5], 0.99 µM in test [2], 0.035 µM in test [4] and 2.2 µM in test [1].
